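Each compound was tested at five concentrations against cells in 96-well plates for 48 hours. TGI is the concentration that stops growth completely.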
What was measured:
Experiment in all cases: inhibition of tumour cell growth, NCI panel, 48 h
KM12 colon = system: KM12 colon
SK-OV-3 ovarian = system: SK-OV-3 ovarian
SF-295 CNS = system: SF-295 CNS
SK-MEL-5 melanoma = system: SK-MEL-5 melanoma
NCI-H23 lung = system: NCI-H23 lung
EKVX NSCLC = system: EKVX NSCLC
OVCAR-8 ovarian = system: OVCAR-8 ovarian
M14 melanoma = system: M14 melanoma
HCC-2998 colon = system: HCC-2998 colon
RPMI-8226 leukemia = system: RPMI-8226 leukemia
SN12C renal = system: SN12C renal
UACC-62 melanoma = system: UACC-62 melanoma
A549 NSCLC = system: A549 NSCLC
SF-268 CNS = system: SF-268 CNS
OVCAR-3 ovarian = system: OVCAR-3 ovarian
MCF7 breast = system: MCF7 breast
BT-549 breast = system: BT-549 breast
UO-31 renal = system: UO-31 renal
CCRF-CEM leukemia = system: CCRF-CEM leukemia
SK-MEL-2 melanoma = system: SK-MEL-2 melanoma
LOX IMVI melanoma = system: LOX IMVI melanoma
ACHN renal = system: ACHN renal
UACC-257 melanoma = system: UACC-257 melanoma
MDA-N = system: MDA-N
HS 578T breast = system: HS 578T breast
U251 CNS = system: U251 CNS
NCI/ADR-RES ovarian = system: NCI/ADR-RES ovarian
RXF 393 renal = system: RXF 393 renal
K-562 leukemia = system: K-562 leukemia
SNB-75 CNS = system: SNB-75 CNS
HOP-92 NSCLC = system: HOP-92 NSCLC
PC-3 prostate = system: PC-3 prostate
SK-MEL-28 melanoma = system: SK-MEL-28 melanoma
OVCAR-5 ovarian = system: OVCAR-5 ovarian
COLO 205 colon = system: COLO 205 colon
MDA-MB-435 = system: MDA-MB-435
MOLT-4 leukemia = system: MOLT-4 leukemia
HCT-116 colon = system: HCT-116 colon
OVCAR-4 ovarian = system: OVCAR-4 ovarian
CAKI-1 renal = system: CAKI-1 renal
NCI-H226 lung = system: NCI-H226 lung
HOP-62 NSCLC = system: HOP-62 NSCLC
TK-10 renal = system: TK-10 renal
T-47D breast = system: T-47D breast
SNB-19 CNS = system: SNB-19 CNS
IGROV1 ovarian = system: IGROV1 ovarian
SW-620 colon = system: SW-620 colon
NCI-H460 lung = system: NCI-H460 lung
DU-145 prostate = system: DU-145 prostate
HT29 colon = system: HT29 colon
SF-539 CNS = system: SF-539 CNS
SR leukemia = system: SR leukemia
HL-60(TB) leukemia = system: HL-60(TB) leukemia
MALME-3M melanoma = system: MALME-3M melanoma
MDA-MB-231 breast = system: MDA-MB-231 breast
HCT-15 colon = system: HCT-15 colon
786-0 renal = system: 786-0 renal
NCI-H522 lung = system: NCI-H522 lung

`CC(=C(c1ccccc1)c1ccccc1)N1C(=O)CC(=O)N1C` showed a TGI (KM12 colon) of over 100 µM, a TGI (SK-OV-3 ovarian) of over 100 µM and a TGI (SF-295 CNS) of over 100 µM. The TGI (SK-MEL-5 melanoma) was over 100 µM, the TGI (NCI-H23 lung) was over 100 µM and the TGI (EKVX NSCLC) was over 100 µM. It also gave a TGI (OVCAR-8 ovarian) of over 100 µM, a TGI (M14 melanoma) of over 100 µM and a TGI (HCC-2998 colon) of over 100 µM. For the same compound, the TGI (RPMI-8226 leukemia) was over 100 µM, the TGI (SN12C renal) was over 100 µM and the TGI (UACC-62 melanoma) was 83.6 µM. It also gave a TGI (A549 NSCLC) of over 100 µM, a TGI (SF-268 CNS) of over 100 µM and a TGI (OVCAR-3 ovarian) of over 100 µM. The TGI (MCF7 breast) was over 100 µM, the TGI (BT-549 breast) was over 100 µM and the TGI (UO-31 renal) was 31.5 µM. It also gave a TGI (CCRF-CEM leukemia) of 78.2 µM, a TGI (SK-MEL-2 melanoma) of over 100 µM and a TGI (LOX IMVI melanoma) of 31.2 µM. The TGI (ACHN renal) was over 100 µM, the TGI (UACC-257 melanoma) was over 100 µM and the TGI (MDA-N) was over 100 µM. The TGI (HS 578T breast) was 55.4 µM, the TGI (U251 CNS) was over 100 µM and the TGI (NCI/ADR-RES ovarian) was over 100 µM. It also gave a TGI (RXF 393 renal) of 61.6 µM, a TGI (K-562 leukemia) of over 100 µM and a TGI (SNB-75 CNS) of over 100 µM. It also gave a TGI (HOP-92 NSCLC) of over 100 µM, a TGI (PC-3 prostate) of over 100 µM and a TGI (SK-MEL-28 melanoma) of over 100 µM. The TGI (OVCAR-5 ovarian) was over 100 µM, the TGI (COLO 205 colon) was over 100 µM and the TGI (MDA-MB-435) was over 100 µM. For the same compound, the TGI (MOLT-4 leukemia) was 76.3 µM, the TGI (HCT-116 colon) was over 100 µM and the TGI (OVCAR-4 ovarian) was 79.5 µM. The TGI (CAKI-1 renal) was 64.8 µM, the TGI (NCI-H226 lung) was over 100 µM and the TGI (HOP-62 NSCLC) was over 100 µM. For the same compound, the TGI (TK-10 renal) was over 100 µM, the TGI (T-47D breast) was over 100 µM and the TGI (SNB-19 CNS) was over 100 µM. The TGI (IGROV1 ovarian) was 39 µM, the TGI (SW-620 colon) was over 100 µM and the TGI (NCI-H460 lung) was over 100 µM. For the same compound, the TGI (DU-145 prostate) was over 100 µM, the TGI (HT29 colon) was over 100 µM and the TGI (SF-539 CNS) was over 100 µM.

Compound `CCC1(c2ccccc2)Sc2ccccc2-n2cccc2C1=O` (configuration not stated) has a TGI (KM12 colon) of over 10 µM, a TGI (SK-OV-3 ovarian) of over 10 µM and a TGI (SR leukemia) of over 10 µM. For the same compound, the TGI (HL-60(TB) leukemia) was over 10 µM, the TGI (SF-295 CNS) was over 10 µM and the TGI (SK-MEL-5 melanoma) was over 10 µM. It also gave a TGI (NCI-H23 lung) of over 10 µM, a TGI (EKVX NSCLC) of over 10 µM and a TGI (OVCAR-8 ovarian) of over 10 µM. For the same compound, the TGI (M14 melanoma) was over 10 µM, the TGI (HCC-2998 colon) was over 10 µM and the TGI (RPMI-8226 leukemia) was over 10 µM. The TGI (SN12C renal) was over 10 µM, the TGI (MALME-3M melanoma) was over 10 µM and the TGI (UACC-62 melanoma) was over 10 µM. The TGI (A549 NSCLC) was over 10 µM, the TGI (MCF7 breast) was over 10 µM and the TGI (MDA-MB-231 breast) was over 10 µM. It also gave a TGI (CCRF-CEM leukemia) of over 10 µM, a TGI (HCT-15 colon) of over 10 µM and a TGI (786-0 renal) of over 10 µM. The TGI (UACC-257 melanoma) was over 10 µM, the TGI (MDA-N) was over 10 µM and the TGI (RXF 393 renal) was over 10 µM. It also gave a TGI (K-562 leukemia) of over 10 µM, a TGI (SNB-75 CNS) of over 10 µM and a TGI (PC-3 prostate) of over 10 µM. The TGI (SK-MEL-28 melanoma) was over 10 µM, the TGI (COLO 205 colon) was over 10 µM and the TGI (MOLT-4 leukemia) was over 10 µM. For the same compound, the TGI (CAKI-1 renal) was over 10 µM, the TGI (HOP-62 NSCLC) was over 10 µM and the TGI (TK-10 renal) was over 10 µM. It also gave a TGI (T-47D breast) of over 10 µM, a TGI (IGROV1 ovarian) of over 10 µM and a TGI (SW-620 colon) of over 10 µM. The TGI (DU-145 prostate) was over 10 µM and the TGI (HT29 colon) was over 10 µM.

`CC1(C)CC(O)C(C)(C)[C@@H](O)C1` (some centres not stated) was tested, and the TGI (KM12 colon) was over 100 µM, the TGI (SK-OV-3 ovarian) was over 100 µM and the TGI (HL-60(TB) leukemia) was over 100 µM. For the same compound, the TGI (SF-295 CNS) was over 100 µM, the TGI (SK-MEL-5 melanoma) was over 100 µM and the TGI (NCI-H522 lung) was over 100 µM. For the same compound, the TGI (NCI-H23 lung) was over 100 µM, the TGI (EKVX NSCLC) was over 100 µM and the TGI (OVCAR-8 ovarian) was over 100 µM. For the same compound, the TGI (M14 melanoma) was over 100 µM, the TGI (HCC-2998 colon) was over 100 µM and the TGI (SN12C renal) was over 100 µM. It also gave a TGI (MALME-3M melanoma) of over 100 µM, a TGI (UACC-62 melanoma) of over 100 µM and a TGI (A549 NSCLC) of over 100 µM. The TGI (SF-268 CNS) was over 100 µM, the TGI (MCF7 breast) was over 100 µM and the TGI (MDA-MB-231 breast) was over 100 µM. For the same compound, the TGI (BT-549 breast) was over 100 µM, the TGI (UO-31 renal) was over 100 µM and the TGI (CCRF-CEM leukemia) was over 100 µM. It also gave a TGI (HCT-15 colon) of over 100 µM, a TGI (SK-MEL-2 melanoma) of over 100 µM and a TGI (786-0 renal) of over 100 µM. The TGI (LOX IMVI melanoma) was over 100 µM, the TGI (ACHN renal) was over 100 µM and the TGI (UACC-257 melanoma) was over 100 µM. The TGI (MDA-N) was over 100 µM, the TGI (HS 578T breast) was over 100 µM and the TGI (U251 CNS) was over 100 µM. It also gave a TGI (NCI/ADR-RES ovarian) of over 100 µM, a TGI (RXF 393 renal) of over 100 µM and a TGI (K-562 leukemia) of over 100 µM. It also gave a TGI (SNB-75 CNS) of over 100 µM, a TGI (PC-3 prostate) of over 100 µM and a TGI (SK-MEL-28 melanoma) of over 100 µM. It also gave a TGI (OVCAR-5 ovarian) of over 100 µM, a TGI (COLO 205 colon) of over 100 µM and a TGI (MOLT-4 leukemia) of over 100 µM. It also gave a TGI (HCT-116 colon) of over 100 µM, a TGI (OVCAR-4 ovarian) of over 100 µM and a TGI (CAKI-1 renal) of over 100 µM. For the same compound, the TGI (NCI-H226 lung) was over 100 µM, the TGI (HOP-62 NSCLC) was over 100 µM and the TGI (TK-10 renal) was over 100 µM. The TGI (T-47D breast) was over 100 µM, the TGI (SNB-19 CNS) was over 100 µM and the TGI (IGROV1 ovarian) was over 100 µM. For the same compound, the TGI (SW-620 colon) was over 100 µM, the TGI (NCI-H460 lung) was over 100 µM and the TGI (DU-145 prostate) was over 100 µM. The TGI (HT29 colon) was over 100 µM and the TGI (SF-539 CNS) was over 100 µM.

From PubChem BioAssay (NCI)
